These results are taken from patent publication US10266565B2, “Peptide mimetic ligands of polo-like kinase 1 polo box domain and methods of use” (The United States of America, as represented by the …, priority 2011, dated 2019).

“Also recorded” adds a separate entry of the source. *1 amine or outer side, *2 acyl side, *3 side chain or, on linkers, in order; H or OH if unused. Where a SMILES comes first, the peptide text is derived from it. Where no end group is shown, it is not given here. [ ]: non-standard residue; d: D form. Abu(3R-Me,4-PO3H2) = C[C@@H](CP(=O)(O)O)[C@H](N)C(=O)O; X1 = C[C@H]([C@H](N[*:1])C(=O)[*:2])C(F)(F)P(=O)(O)O; pT = C[C@@H](OP(=O)(O)O)[C@H](N)C(=O)O

One data set concerns the target Plk1 PBD (Homo sapiens, UniProt P53350). Put plainly: ELISA-based PBD-binding inhibition assay (immobilized biotinylated p-T78 peptide, HA-EGFP-Plk1 lysates). Conditions: relative to the comparator named in the sentence. In general terms: In an ELISA, binding on a coated surface is turned into a signal by an enzyme label.
In the next data set the target is T1, Plk2 PBD (Homo sapiens, UniProt Q9NYY3).
T1 sequence (Q9NYY3 373-685): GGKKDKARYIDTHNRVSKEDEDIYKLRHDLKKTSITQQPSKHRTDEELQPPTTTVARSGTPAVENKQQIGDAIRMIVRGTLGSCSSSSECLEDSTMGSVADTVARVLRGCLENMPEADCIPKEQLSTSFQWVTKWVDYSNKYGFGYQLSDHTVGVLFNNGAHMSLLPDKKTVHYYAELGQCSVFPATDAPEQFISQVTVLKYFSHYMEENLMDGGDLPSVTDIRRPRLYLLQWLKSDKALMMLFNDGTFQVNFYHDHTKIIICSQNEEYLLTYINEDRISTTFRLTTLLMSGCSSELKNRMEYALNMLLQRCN
Nature of the data set: Isothermal titration calorimetry with recombinant Plk2 PBD. In general terms: In ITC the heat of successive injections is recorded.

In the next data set the target is T2, Plk1 (Homo sapiens, UniProt P53350).
T2 construct: we used total lysates prepared from mitotic HeLa cells; endogenous in cells; host or cells: mitotic (nocodazole-arrested) HeLa cells
T2 sequence (P53350 2-603): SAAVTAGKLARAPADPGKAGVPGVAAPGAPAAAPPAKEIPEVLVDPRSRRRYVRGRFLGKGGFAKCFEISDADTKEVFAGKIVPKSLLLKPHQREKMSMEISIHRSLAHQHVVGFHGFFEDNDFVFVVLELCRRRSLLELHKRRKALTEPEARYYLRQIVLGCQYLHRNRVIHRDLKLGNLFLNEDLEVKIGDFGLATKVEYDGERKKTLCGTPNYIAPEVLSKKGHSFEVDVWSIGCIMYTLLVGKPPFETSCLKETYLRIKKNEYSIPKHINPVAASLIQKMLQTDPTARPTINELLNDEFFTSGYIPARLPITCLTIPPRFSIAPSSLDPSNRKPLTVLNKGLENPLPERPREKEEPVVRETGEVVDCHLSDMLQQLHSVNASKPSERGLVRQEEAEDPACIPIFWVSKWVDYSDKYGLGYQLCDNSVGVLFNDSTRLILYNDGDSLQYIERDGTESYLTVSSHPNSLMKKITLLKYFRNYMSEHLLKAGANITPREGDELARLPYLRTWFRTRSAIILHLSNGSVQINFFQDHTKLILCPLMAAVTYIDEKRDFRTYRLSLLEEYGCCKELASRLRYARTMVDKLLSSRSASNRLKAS
Nature of the data set: Peptide pull-down assay with bead-immobilized peptides, Plk1. Format: binding. Particulars: mitotic cell lysates. How it is done: For Plk1 pull-down assays with immobilized peptides, we used total lysates prepared from mitotic HeLa cells. […] Cells treated with 200 ng/ml of nocodazole for 16 h were lysed in TBSN buffer {20 mM Tris-Cl (pH8.0), 150 mM NaCl, 0.5% NP-40, 5 mM EGTA, 1.5 mM EDTA, 0.5 mM Na3VO4, 20 mM p-nitrophenyl phosphate, and protease inhibitor cocktail (Roche, Nutley, N.J.)}, and then clarified by centrifugation at 15,000×g for 20 min at 4° C. The resulting lysates were incubated with bead-immobilized peptides (40 μM per binding) for 2 h, precipitated, washed, and then boiled in sodium dodecyl sulfate (SDS) sample buffer to elute the associated proteins. Samples were separated by 10% SDS-polyacrylamide gel electrophoresis (PAGE), and then either stained with silver or transferred to PVDF membrane for immunoblotting analysis with anti-Plk1 antibody using the enhanced chemiluminescence (ECL) detection system (Pierce). […]

Data set [1] concerns the target Plk1 PBD-p-Cdc25C interaction (Homo sapiens, UniProt P53350). Put plainly: Competition of the PBD-p-Cdc25C interaction in mitotic HeLa lysates. The format is binding. Conditions: GST-PBD. How it is done: For p-Cdc25C pull-down assays, either bead-bound GST-PBD or the corresponding GST-PBD(H538A K540M) mutant was incubated with mitotic HeLa lysates in TBSN buffer supplemented with 2 mM DTT. To test the ability of the indicated peptides to compete the PBD-p-Cdc25C interaction, lysates were pre-incubated with GST-PBD for 1.5 h prior to the addition of the indicated peptides. Lysates were then incubated for additional 1.5 h, washed in the binding buffer, and then analyzed. For competition of the interaction between p-Cdc25C and endogenous Plk1, mitotic lysates were prepared in TBSN and incubated with the indicated peptides for 1 h before subjecting to immunoprecipitation with anti-Plk1 antibody.

The test system of data set [2] is HeLa cells. Nature of the data set: Direct treatment of cultured HeLa cells (mitotic arrest, apoptotic cell death, Plk1 localization). The format is cell-based. Particulars: 200 μM.
Another data set has as its target T3, Plk2 (Mus musculus, UniProt P53351, K108M).
T3 construct: expressed in transfected cells
Put plainly: Peptide pull-down assay with bead-immobilized peptides, Plk2. Format: binding. How it is done: After incubating the cell lysates prepared in TBSN buffer {20 mM Tris-Cl (pH8.0), 150 mM NaCl, 0.5% Np-40, 5 mM EGTA, 1.5 mM EDTA, 20 mM p-nitrophenylphosphate and protease inhibitor cocktail (Roche, Nutley, N.J.)} with the bead-immobilized ligands for 2 h at 4° C., the ligand-associating proteins were precipitated, washed, boiled in sodium dodecyl sulfate (SDS) sample buffer, separated by 8% SDS-polyacrylamide gel electrophoresis (PAGE), and then subjected to immunoblotting analysis with anti-Flag antibody and the enhanced chemilunimescence (ECL) detection system (Pierce). The same membrane was also stained with Coomassies (CBB). Signal intensities were quantified using Image J program.
To investigate the binding specificity of p-T78 peptides to various Plks, Flag-Plk1 (K82M), Flag-Plk2(K108M)3 or Flag-Plk3(K52R) (a gift of Wei Dai, New York University School of Medicine, NY) construct was first transfected into HeLa cells. Cellular lysates were prepared as above, mixed, and then incubated in TBSN buffer with the immobilized peptides indicated.

The target of the next data set is T4, Plk3 (Homo sapiens, UniProt Q9H4B4, K91R).
T4 construct: expressed in transfected cells; construct a gift of Wei Dai
T4 sequence (Q9H4B4 40-646 K91R limits assumed): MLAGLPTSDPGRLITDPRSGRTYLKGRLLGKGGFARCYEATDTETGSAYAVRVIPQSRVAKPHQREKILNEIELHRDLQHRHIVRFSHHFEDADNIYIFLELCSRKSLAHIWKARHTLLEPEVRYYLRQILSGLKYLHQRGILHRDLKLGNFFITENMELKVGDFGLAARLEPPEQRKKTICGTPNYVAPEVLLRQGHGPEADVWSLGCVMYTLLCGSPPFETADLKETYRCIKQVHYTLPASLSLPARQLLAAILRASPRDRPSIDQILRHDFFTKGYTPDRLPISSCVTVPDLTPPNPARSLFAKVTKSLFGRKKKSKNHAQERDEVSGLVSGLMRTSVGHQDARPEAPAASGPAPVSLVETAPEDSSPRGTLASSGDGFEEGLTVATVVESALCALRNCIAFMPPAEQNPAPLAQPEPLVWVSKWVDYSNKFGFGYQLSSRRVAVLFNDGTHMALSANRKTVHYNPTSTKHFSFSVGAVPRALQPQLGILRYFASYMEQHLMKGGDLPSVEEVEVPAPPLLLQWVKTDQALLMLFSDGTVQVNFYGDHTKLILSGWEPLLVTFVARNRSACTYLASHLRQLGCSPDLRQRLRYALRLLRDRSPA
Nature of the data set: Peptide pull-down assay with bead-immobilized peptides, Plk3. Format: binding.

Data set [3] concerns HeLa cells. Conditions: Yun et al. 2009; cited from earlier work.
A short description of data set [4]: Toxicity in cell-based experiments.
In data set [5] the target is recombinant Plk1 PBD (full length PBD, calorimetry) (UniProt P53350). Nature of the data set: ITC, 25 C; 5-mer LHSpTA (SEQ ID NO: 3).
recombinant Plk1 PBD (full length PBD, calorimetry), sequence (P53350 326-603 limits assumed): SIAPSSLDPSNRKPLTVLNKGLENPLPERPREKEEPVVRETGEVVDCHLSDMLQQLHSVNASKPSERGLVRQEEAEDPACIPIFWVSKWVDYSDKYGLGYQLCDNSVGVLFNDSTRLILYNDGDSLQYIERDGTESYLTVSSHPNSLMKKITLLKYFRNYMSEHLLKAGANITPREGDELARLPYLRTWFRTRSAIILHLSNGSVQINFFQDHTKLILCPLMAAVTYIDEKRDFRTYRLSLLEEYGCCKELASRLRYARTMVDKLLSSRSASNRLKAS
Data set [6] deals with T5, recombinant Plk2 PBD (residues 373 to 685) (human) (UniProt Q9NYY3).
T5 sequence (looked up): T1 sequence (Q9NYY3 373-685)
Put plainly: ITC; saturable binding not observed.

In data set [7] the target is Flag-Plk2 (K108M) (UniProt Q9NYY3). Nature of the data set: pull-down with bead-immobilized peptide, mixed Flag-Plk1/2/3 lysates (HeLa).
Data set [8] shares this target. Nature of the data set: assay not stated at this place (peptide pull-down by paragraph 548).
Data set [9] has as its target T5, recombinant Plk2 PBD (residues 373 to 685) (human). Nature of the data set: ITC.
Data set [10] deals with T6, HA-EGFP-Plk1 (UniProt P53350 1-603).
T6 construct: In lysates of mitotic 293A cells infected with adenovirus expressing HA-EGFP-Plk1
T6 sequence (P53350 whole entry): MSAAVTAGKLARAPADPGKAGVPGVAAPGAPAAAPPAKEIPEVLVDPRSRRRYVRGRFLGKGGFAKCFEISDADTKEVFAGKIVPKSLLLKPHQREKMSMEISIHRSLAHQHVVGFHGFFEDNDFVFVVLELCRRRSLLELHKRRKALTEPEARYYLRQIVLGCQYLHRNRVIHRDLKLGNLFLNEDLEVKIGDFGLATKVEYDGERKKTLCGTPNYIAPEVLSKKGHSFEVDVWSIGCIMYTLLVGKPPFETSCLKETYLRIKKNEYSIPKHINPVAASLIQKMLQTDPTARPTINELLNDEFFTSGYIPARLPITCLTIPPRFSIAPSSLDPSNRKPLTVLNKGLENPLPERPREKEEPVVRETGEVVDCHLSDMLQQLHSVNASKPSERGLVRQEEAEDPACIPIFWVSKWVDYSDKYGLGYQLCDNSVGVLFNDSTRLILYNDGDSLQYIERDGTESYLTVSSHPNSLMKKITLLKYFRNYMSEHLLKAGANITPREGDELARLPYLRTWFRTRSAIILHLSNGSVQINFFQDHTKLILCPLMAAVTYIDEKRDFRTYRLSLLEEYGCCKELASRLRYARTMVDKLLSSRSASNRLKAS
Put plainly: competition ELISA, HA-EGFP-Plk1 lysate on immobilized biotin p-T78 9-mer.

Data set [11] addresses T6, HA-EGFP-Plk1. Nature of the data set: ELISA-based PBD-binding inhibition assay: peptide as competitor of the immobilized biotinylated 9-mer p-T78 peptide for HA-EGFP-Plk1 in mitotic 293A cell lysate; bound Plk1 detected with anti-HA, OD 450 nm.
Another data set addresses Flag-Plk1 (K82M) (UniProt P53350 1-603). Put plainly: pull-down with bead-immobilized peptide, mitotic HeLa lysate.

T3 sequence (P53351 whole entry K108M): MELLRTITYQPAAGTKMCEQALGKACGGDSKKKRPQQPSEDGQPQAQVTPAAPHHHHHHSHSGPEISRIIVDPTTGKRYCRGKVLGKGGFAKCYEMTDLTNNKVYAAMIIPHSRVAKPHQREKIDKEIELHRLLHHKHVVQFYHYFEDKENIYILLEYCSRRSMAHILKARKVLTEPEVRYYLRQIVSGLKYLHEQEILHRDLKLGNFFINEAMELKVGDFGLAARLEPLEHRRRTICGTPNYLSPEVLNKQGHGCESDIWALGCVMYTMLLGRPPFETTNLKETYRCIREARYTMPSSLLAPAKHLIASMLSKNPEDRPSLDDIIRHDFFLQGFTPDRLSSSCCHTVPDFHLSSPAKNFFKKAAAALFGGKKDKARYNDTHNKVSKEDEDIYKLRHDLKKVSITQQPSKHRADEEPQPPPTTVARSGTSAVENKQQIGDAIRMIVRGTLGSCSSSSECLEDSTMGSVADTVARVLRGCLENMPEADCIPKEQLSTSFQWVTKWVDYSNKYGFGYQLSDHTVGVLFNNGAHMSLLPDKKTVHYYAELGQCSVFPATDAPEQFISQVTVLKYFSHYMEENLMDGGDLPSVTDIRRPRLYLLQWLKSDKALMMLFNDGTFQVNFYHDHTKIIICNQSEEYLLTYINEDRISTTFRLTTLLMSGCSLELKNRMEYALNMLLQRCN
Flag-Plk1 (K82M), sequence (P53350 whole entry K82M): as the sequence (P53350 whole entry) above, with K82M counted along it
Plk1 PBD, sequence (P53350 whole entry): as the sequence (P53350 whole entry) above
Plk1 PBD-p-Cdc25C interaction, sequence (P53350 326-603 limits assumed): as the sequence (P53350 326-603 limits assumed) above

For the molecule `CC(=O)N[C@@H](CC(C)C)C(=O)N[C@@H](Cc1c[nH]cn1)C(=O)N[C@@H](CO)C(=O)N[C@H](C(=O)N[C@@H](C)C(N)=O)[C@@H](C)OP(=O)(O)O` [LHSpTA], at Plk1 PBD, the “Plk1 PBD-binding affinity / inhibition, in words” value was “inhibited the PBD at a moderately reduced level”. Also, at Plk2 PBD, the “interaction with Plk2 PBD by calorimetry, in words” value is listed as “virtually no interactions with Plk2”. The “Plk1 binding / precipitation in pull-down, in words” value at Plk1 was “bound to Plk1 almost as efficiently as PLHSpT”. For the same molecule, the “disruption of the pre-formed PBD-p-Cdc25C complex” value in data set [1] is reported as “disrupted the pre-formed PBD-p-Cdc25C complex nearly as efficiently as PLHSpT”.
Consider `COCCOCCOCCOCCOCCOCCOCCOCCC(=O)N1CCC[C@H]1C(=O)N[C@@H](CC(C)C)C(=O)N[C@@H](Cc1cncn1CCCCCCCCc1ccccc1)C(=O)N[C@@H](CO)C(=O)N[C@H](C(N)=O)[C@@H](C)CP(=O)(O)O` [PEG-4j*], for which, in the data set with HeLa cells [2], the “Plk1 delocalization and misaligned chromosomes” value is “drastic Plk1 delocalization from centrosomes and kinetochores, and severe misaligned chromosomes”; the “mitotic arrest / apoptotic cell death / cellular response” value is “effectively induced mitotic arrest and apoptotic cell death”. For the same molecule, the “Plk2 binding / precipitation in pull-down, in words” value at Plk2 is reported as “failed to significantly interact”. Besides, the “Plk3 binding / precipitation in pull-down, in words” value at Plk3 is “failed to significantly interact”.
Take `CC(=O)N1CCC[C@H]1C(=O)N[C@@H](CC(C)C)C(=O)N[C@@H](Cc1c[nH]cn1)C(=O)N[C@@H](CO)C(=O)N[C@H](C(N)=O)[C@@H](C)OP(=O)(O)O` [compound 1, PLHSpT]: the “mitotic arrest / apoptotic cell death / cellular response” value in the data set with HeLa cells [2] is listed as “failed to elicit a detectable cellular response; also recorded: failed to generate a detectable level of cellular effect”. In addition, the “Plk1 localization and apoptotic cell death after microinjection” value in the data set on HeLa cells [3] is “interferes with proper subcellular localization of Plk1 and induces apoptotic cell death”.
Regarding `CC(=O)N1CCC[C@H]1C(=O)N[C@@H](CC(C)C)C(=O)N[C@@H](Cc1c[nH]cn1)C(=O)N[C@@H](CO)C(=O)N[C@H](C(=O)N[C@@H](C)C(N)=O)[C@@H](C)C(F)(F)P(=O)(O)O` [compound 25, PLHS-F2Pmab-A] (Ac-PLHS[X1]A-NH2), in data set [4], the toxicity entry is reported as “significant toxicity”.
Consider LHSpTA (peptide), for which the dissociation constant Kd (as a rule, the free concentration of one partner at which half of the binding sites on the other are occupied at equilibrium, for simple one-to-one binding) in [5] amounted to 450 nM.
Turning to MQS[pT]PL [MQSpTPL], the initial heats of interaction in data set [6] was -1.68 kcal/mol. Also, in the data set with Flag-Plk2 (K108M) [7], the efficiency of precipitation relative to Plk1 was 27%.
For PLQS[pT] [PLQSpT], in the data set with Flag-Plk2 (K108M) [8], the fold increase of Plk2 binding was 24 fold. The initial heats of interaction in [9] was -1.1 kcal/mol.
With PLHA[Abu(3R-Me,4-PO3H2)] (also called 24; Pmab(S77A)) [PLHA-Pmab], in the data set with HA-EGFP-Plk1 [10], the “fold higher molar concentration without inhibition” value is above 1000 fold. Moreover, the figures for the binding result in the data set with HA-EGFP-Plk1 [11] and with Flag-Plk1 (K82M) were “no binding (tested: 300 µM)” and “no binding”, respectively.
